Laboratory results reported in patent US20260199287A1, “LIPO-HYDROXAMIC ACID DERIVATIVE AND PHARMACEUTICAL USE THEREOF” (MediciBIO Co., Ltd, priority 2022, published 2026).
Like-named read-outs stand apart in the source and are kept apart here.

Legend:
[1] = tested on: human corneal endothelial cells; assay: In vitro antioxidant activity, ROS-Glo H2O2 assay in corneal dystrophy-like environment; type: cell-based; conditions: compared to control group (corneal dystrophy-mimicking: UV 5 J/cm^2 + TGF-β1 10 ng/ml); sample 4 h before induction
Method: (§1) PriNeu I medium, which is a serum-free medium, was supplemented with 10% fetal bovine serum, human epidermal growth factor (EGF), human vascular endothelial growth factor (VEGF), human insulin, human transferrin, sodium selenite, hydrocortisone, heparin, R estradiol, L-glutamine, penicillin/streptomycin, and G418 (geneticin). Human corneal endothelial cells (purchased from Creative Biolabs (NY, USA)) were seeded onto culture dishes coated with FNC Coating Mix (Athena Environmental Science, MD, USA) and incubated at 37° C. in a humidified 5% CO2 atmosphere.
To establish an intracellular environment similar to that of cells affected by corneal dystrophy (hereinafter referred to as “corneal dystrophy-like environment”), cellular signaling pathways involving reactive oxygen species (ROS) and transforming growth factor-beta (TGF-β), both known to be associated with corneal dystrophy, were activated. Human corneal endothelial cells were first cultured in standard medium for 24 hours, after which the medium was replaced with serum-free PriNeu I medium. The cells were then irradiated at an intensity of 5 J/cm^2 using a UV irradiation (BLX-Link, Vilber, France). Subsequently, the cells were treated with recombinant human TGF-β1 protein at a concentration of 10 ng/ml (Bon Opus, NJ, USA).
To determine the effect of the above-prepared lipo-hydroxamic acid derivatives on oxidative stress activity in corneal endothelial cells, human corneal endothelial cells were cultured at 1.5×10^4 cells per well in a 96-well plate coated with FNC Coating Mix for 18 to 24 hours. Subsequently, the cells were treated with the test samples (Samples 1, 3, and 5). […] The oxidative stress activity was determined by measuring the level of hydrogen peroxide (hereinafter referred to as “H2O2”) in the cell culture medium using the ROS-Glo™ H2O2 Assay (Promega, WI, USA) according to the manufacturer's instructions. The luminescence intensity was measured using the GloMax® Discover microplate reader (Promega) at an excitation wavelength of 485 nm and an emission wavelength of 520-530 nm.

[2] = Stability as an eye drop composition (HPLC peak area); type: physicochemical; conditions: for Peak area(%) Sample 1 / Peak area(%) Total amount of decomposed products: HPLC
Method: In order to identify the stability of the lipo-hydroxamic acid derivative prepared above as an eye drop composition, the ratio (peak area, % o) of the active ingredient and decomposed product of the sample (Sample 1) was determined via HPLC analysis.

[3] = tested on: Smad3; assay: SMAD3 (pS423/pS425) ELISA; type: cell-based, human; conditions: compared to the control group (corneal dystrophy-like environment)
Method: To identify the effect of the lipo-hydroxamic acid derivative prepared above on the expression of factors associated with fibrosis- and cellular degeneration-related factors in corneal endothelial cells, ELISA was performed to observe the activity of Smad3 protein. Analysis was carried out using SMAD3 (pS423/pS425) Human InstantOne ELISA kit (Thermo Fisher Scientific) according to the manufacturer's instructions. Human corneal endothelial cells were seeded in a 96-well plate at 2×10^4 cells per well, cultured for 24 hours, and then treated with the sample. Twenty-four hours after the sample treatment, the corneal dystrophy-like environment was induced in the same manner as in Example 3-2. Twenty-four hours after the induction, the cells were washed with PBS, lysed by adding 100 μL of lysis buffer mixture prepared by mixing the cell lysis reagent and buffer supplied in the kit. Subsequently, 50 μL of the cell lysate from each sample was added to the ELISA microplate wells. A 1:1 mixture of capture antibody and detection antibody, as provided in the kit, was prepared to form an antibody cocktail, and 50 μL of this mixture was added to each well. The plate was sealed and incubated at room temperature on a shaker at 300 rpm for 1 hour. […] The plate was then read using a microplate reader (Promega) at an absorbance of 450 nm.

[4] = tested on: ABCB6; assay: Real-time PCR, ABCB6 mRNA; type: cell-based, human; conditions: corneal dystrophy-like environment
Method: (§2) To identify the antioxidant mechanism of the lipo-hydroxamic acid derivative prepared above, real-time PCR was performed to detect the mRNA expression levels of the antioxidant enzymes downstream of Nrf2. First, human corneal endothelial cells were cultured at 3×10^5 cells per well in a 6-well plate coated with FNC Coating Mix for 18 to 24 hours, and the samples were treated. Four hours after the sample treatment, the corneal dystrophy-like environment was induced using the same method as described in Example 3-2. Twenty-four hours after inducing the corneal dystrophy-like environment, RNA was isolated from the cells using an RNA extraction kit (Bioneer, Daejeon), and cDNA was synthesized from […] of RNA using RT PreMix (Bioneer). Subsequently, real-time PCR was performed using GoTaq mater mix (Promega) containing SYBR green solution at 95° C. for 2 minutes, followed by 35 cycles at 95° C. for 15 seconds and at 60° C. for 1 minute.

[5] = tested on: N-cadherin; assay: Real-time PCR, N-cadherin mRNA; type: cell-based, human; conditions: corneal dystrophy-like environment
Method: as §2
(§3) To identify the effect of the lipo-hydroxamic acid derivative prepared above on the expression of fibrosis- and cellular degeneration-related factors in corneal endothelial cells, real-time PCR was performed to detect mRNA expression levels of the fibrosis marker N-cadherin, and the cellular degeneration markers collagen I and fibronectin. The real-time PCR was performed in the same manner as in Example 5-2 above.

[6] = tested on: HO-1; assay: Real-time PCR, HO-1 mRNA; type: cell-based, human; conditions: corneal dystrophy-like environment
Method: as §2

[7] = tested on: peroxiredoxin 1 (Prdx1); assay: Real-time PCR, Prdx1 mRNA; type: cell-based, human; conditions: corneal dystrophy-like environment
Method: as §2

[8] = tested on: NQO-1; assay: Real-time PCR, NQO-1 mRNA; type: cell-based, human; conditions: corneal dystrophy-like environment
Method: as §2

[9] = tested on: cleaved caspase-3; assay: Western blot of cleaved caspase-3; type: cell-based, human; conditions: compared to the control group; environment induced 24 hours after sample treatment
Method: (§4) To identify a mechanism of antioxidant activity of the lipo-hydroxamic acid derivative prepared above, Western blot was performed to detect protein expression of nuclear factor erythroid-2-related factor 2 (Nrf2; NCBI Gene ID: 4780) which is an antioxidant transcription factor. First, human corneal endothelial cells were cultured at 3×10^5 cells per well in a 6-well plate coated with FNC Coating Mix for 18 to 24 hours, and the samples were treated. Four hours after the sample treatment, the corneal dystrophy-like environment was induced in accordance with the method described in Example 3-2. […] Protein concentration in the supernatant was determined using a BCA kit (Thermo Fisher Scientific, MA, USA). […]
To identify the effect of the lipo-hydroxamic acid derivative prepared above on apoptosis in corneal endothelial cells, Western blot was performed to detect the protein expression of cleaved caspase-3 which is a major protease involved in apoptosis. […] The anti-cleaved caspase-3 antibody (Asp175; Cell Signaling Technology) was used as the primary antibody, and the cleaved caspase-3 expression was detected by a chemiluminescence image analysis system.

[10] = tested on: fibronectin; assay: Real-time PCR, fibronectin mRNA; type: cell-based, human; conditions: corneal dystrophy-like environment
Method: as §2, §3

[11] = tested on: Sprague-Dawley rats; assay: Antioxidant activity in vivo, H2O2 level after benzalkonium-induced corneal oxidative stress; set-up: species or system rat; conditions: 0.1% and 0.3% eye drops, 10 μL, three times a day for 3 days; compared to control (0.02% benzalkonium)
Method: To determine the effect of the sample on oxidative stress, animal experiments were conducted using Sprague-Dawley rats (purchased from Bio Link). To induce oxidative stress in the cornea of an animal model, the anterior chamber of the right eye was punctured using a syringe equipped with a 30G needle, and then the needle was inserted into the corneal limbus to inject 0.02% benzalkonium (BAK), a known oxidative stress inducer. The ocular surface was subsequently rinsed with sterile saline. To determine whether oxidative stress was induced, the H2O2 level, an indicator of oxidative stress, was measured in the anterior aqueous humor and corneal tissue using the Amplex Red Hydrogen Peroxide/Peroxidase assay kit (Invitrogen, MA, USA) according to the manufacturer's instructions. Afterwards, the animal model received 10 μL drops (single dose) of the sample (Sample 1) at a dose of 0.1% or 0.3% for 24 hours, including pretreatment, three times a day for 3 days, and then the H2O2 level in the anterior aqueous humor was measured. Additionally, proteins were extracted from the harvested corneal tissue, and Western blot was performed in the same manner as in Example 5-1 to examine the expression of the Nrf2 protein. […]

[12] = tested on: Smad2/3; assay: Western blot of Smad2/3 phosphorylation; type: cell-based, human; conditions: compared to the control group (corneal dystrophy-mimicking)
[13] = tested on: nuclear factor erythroid-2-related factor 2 (Nrf2); assay: Western blot of Nrf2 protein expression; type: cell-based, human; conditions: compared to the control; corneal dystrophy-like environment
Method: To identify a mechanism of antioxidant activity of the lipo-hydroxamic acid derivative prepared above, Western blot was performed to detect protein expression of nuclear factor erythroid-2-related factor 2 (Nrf2; NCBI Gene ID: 4780) which is an antioxidant transcription factor. First, human corneal endothelial cells were cultured at 3×10^5 cells per well in a 6-well plate coated with FNC Coating Mix for 18 to 24 hours, and the samples were treated. Four hours after the sample treatment, the corneal dystrophy-like environment was induced in accordance with the method described in Example 3-2. Twenty-four hours after induction of the corneal dystrophy-like environment, the cells were washed with phosphate-buffered saline (PBS) and lysed using RIPA lysis buffer (GenDEPOT) containing protease inhibitor cocktail tablets (GenDEPOT, TX, USA). The cell lysates were centrifuged at 13,000 rpm at 4° C. for 10 minutes to obtain the supernatant. Protein concentration in the supernatant was determined using a BCA kit (Thermo Fisher Scientific, MA, USA). Equal amounts of protein were mixed with 5x SDS sample buffer and boiled for 5 minutes, followed by gel electrophoresis. The separated proteins were transferred to a nitrocellulose membrane (GenDEPOT), and nonspecific antibody binding was blocked by incubating the membrane in 5% skim milk at room temperature for 1 hour. […]

[14] = tested on: Nrf2; assay: Nrf2 protein expression in corneal tissue in vivo (Western blot); set-up: species or system rat; conditions: 0.1% and 0.3% eye drops; compared to control (0.02% benzalkonium)
Method: as §4
To determine the effect of the sample on oxidative stress, animal experiments were conducted using Sprague-Dawley rats (purchased from Bio Link). […] To determine whether oxidative stress was induced, the H2O2 level, an indicator of oxidative stress, was measured in the anterior aqueous humor and corneal tissue using the Amplex Red Hydrogen Peroxide/Peroxidase assay kit (Invitrogen, MA, USA) according to the manufacturer's instructions. Afterwards, the animal model received 10 μL drops (single dose) of the sample (Sample 1) at a dose of 0.1% or 0.3% for 24 hours, including pretreatment, three times a day for 3 days, and then the H2O2 level in the anterior aqueous humor was measured. […]

[15] = tested on: human corneal endothelial cells; assay: Anti-apoptotic effect, CellTiter-Glo 2.0 cell viability assay in corneal dystrophy-like environment; type: cell-based; conditions: compared to control group (corneal dystrophy-mimicking); 24 hours treatment
Method: as §1, with “atmosphere. […]” for “atmosphere.”
In order to identify the effect of the lipo-hydroxamic acid derivative prepared above on apoptosis caused by corneal dystrophy in corneal endothelial cells, human corneal endothelial cells were cultured in the same manner as in Example 3-1. […] Afterwards, the samples (Samples 1, 4, and 5) were pretreated for 24 hours, and cell viability was measured via the CellTiter-Glo 2.0 cell viability assay (Promega). The number of viable cells was determined based on intracellular ATP levels, and the luminescence intensity was measured using a GloMax Discover microplate reader (Promega).

[16] = tested on: collagen I; assay: Real-time PCR, collagen I mRNA; type: cell-based, human; conditions: corneal dystrophy-like environment
Method: as §2, §3

[17] = type: in vitro ADME

SMILES: CN(OCCO)C(=O)CCCC[C@@H]1CCSS1 [Sample 3, (R)-5-[1,2]dithiolan-3-yl-pentanoic acid (2-hydroxy-ethoxy)-methyl-amide]
- oxidative stress (H2O2 level in cell culture medium) [1]: significantly decreased

SMILES: O=C(CCCCC1CCSS1)NOCCO (stereo not drawn) [Sample 1, 5-[1,2]dithiolan-3-yl-pentanoic acid (2-hydroxy-ethoxy)-amide]
- Peak area(%) Sample 1 ([2]; Day 1): 99.36%
- Peak area(%) Total amount of decomposed products ([2]; Day 1): 0.62%
- Peak area(%) Sample 1 ([2]; Day 2): 99.20%
- Peak area(%) Total amount of decomposed products ([2]; Day 2): 0.80%
- Peak area(%) Sample 1 ([2]; Day 3): 99.36%
- Peak area(%) Total amount of decomposed products ([2]; Day 3): 0.64%
- Peak area(%) Sample 1 ([2]; Early stage): 99.72%
- Peak area(%) Total amount of decomposed products ([2]; Early stage): 0.28%
- stability in a liquid phase ([2]; up to day 3): good stability
- activity of the Smad3 protein [3]: significantly decreased
- mRNA expression of ABCB6 [4]: significantly increased
- mRNA expression of N-cadherin [5]: significantly decreased in a concentration-dependent manner
- mRNA expression of HO-1 [6]: significantly increased
- mRNA expression of peroxiredoxin 1 (Prdx1) [7]: significantly increased
- mRNA expression of NQO-1 [8]: significantly increased
- oxidative stress (H2O2 level in cell culture medium) [1]: significantly decreased
- protein expression of cleaved caspase-3 [9]: significantly decreased in a concentration-dependent manner
- mRNA expression of fibronectin [10]: significantly decreased in a concentration-dependent manner
- decrease of H2O2 in the anterior aqueous humor [11]: 40-70%
- phosphorylation of Smad2/3 protein [12]: significantly decreased
- Nrf2 protein expression [13]: significantly increased
- Nrf2 expression in corneal tissue [14]: significantly increased depending on the concentration of the sample
- concentration from which a significant increase in cell viability was observed [15]: ≥ 30 µM
- mRNA expression of collagen I [16]: significantly decreased in a concentration-dependent manner
- Peak area (%) ([17]; 0.5 h): 97.37%
- Peak area (%) ([17]; 2 h): 92.65%
- Peak area (%) ([17]; 18 h): 17.42%
- Peak area (%) ([17]; 24 h): 6.00%

SMILES: O=C(CCCCC1CCSS1)N(O)C(=O)CCCCC1CCSS1 (stereo not drawn) [Sample 5, 5-[1,2]dithiolan-3-yl-pentanoic acid (5-[1,2]dithiolan-3-yl-pentanoyl-hydroxy-amide)]
- oxidative stress (H2O2 level in cell culture medium) [1]: significantly decreased
